# Experiments:
# Assay type in all cases: in vivo
# weeds = test: Herbicidal activity, overall conclusion from greenhouse and field results; settings: summary of Tables 1 to 8
# Text: These new chemical herbicides offer a broader spectrum of weed control, higher activity against weeds, and provide a way to address the management of weeds that developed resistance with respect to herbicides traditionally used to control them.
# [1] = system: POLCO=Polygonum convolvulus L. (wild buckwheat); test: Postemergence field trial, Hanley, Saskatchewan, Canada; settings: 66DAAA
# Method: (§1) Field trials were established in Canada (in Ellerslie, Alberta; Nisku, Alberta and Hanley, Saskatchewan) to evaluate the efficacy of Compound 5, Compound 6, and Compound 7. Trials were designed as randomized complete blocks with four replicates. Trials were established in spring wheat with natural weed population with plot sizes of 2-3 meters (m) by 8-10 m (width×length). The crops were grown using normal cultural practices for fertilization, seeding, and maintenance to ensure good growth of the crop.
# (§2) All herbicide treatments were applied post-emergence with applications made to the crops at BBCH (Phenological development stages of a plant) 14 to 22 growth stage. Herbicides were applied with backpack or bicycle sprayers using carbon dioxide (CO2) as a propellant. The sprayers utilized flat fan air-induction spray nozzles calibrated to deliver a uniform spray pattern that provided thorough coverage of the foliage using a 100 L/ha spray volume. All treatments were applied with methylated seed oil (MSO) at 1.25% v/v. Phytotoxicity to the weeds was assessed visually at several intervals after application as percent overall control, compared to an untreated control plot. In general, four replicates were assessed for each treatment. All treatment results are an average of four replicates.
# (§3) Compound 5, Compound 6 and Compound 7 were applied as emulsifiable concentrate (EC) formulations at 100 g ae/L EC, respectively.
# [2] = system: KCHSC=Kochia scoparia (L.) Schrad. (Kochia); test: as above; settings: 66DAAA
# Method: as §1, §2, §3
# [3] = system: CHEAL=Chenopodium album L. (common lambsquarters); test: as above; settings: 66DAAA
# Method: as §1, §2, §3
Structure (SMILES),herbicidal activity (overall conclusion) (weeds),Percent (%) Visual Control POLCO ([1]; 10 g ae/ha),Percent (%) Visual Control POLCO ([1]; 20 g ae/ha),Percent (%) Visual Control POLCO ([1]; 40 g ae/ha),Percent (%) Visual Control KCHSC ([2]; 10 g ae/ha),Percent (%) Visual Control KCHSC ([2]; 20 g ae/ha),Percent (%) Visual Control KCHSC ([2]; 40 g ae/ha),Percent (%) Visual Control CHEAL ([3]; 10 g ae/ha),Percent (%) Visual Control CHEAL ([3]; 20 g ae/ha),Percent (%) Visual Control CHEAL ([3]; 40 g ae/ha)
"C#CCOC(=O)c1nc(-c2ccc3cc[nH]c3c2F)c(F)c(N)c1Cl [Compound 5, prop-2-yn-1-yl 4-amino-3-chloro-5-fluoro-6-(7-fluoro-1H-indol-6-yl)picolinate]",superior herbicidal activity over Compound 7,–,–,–,–,–,–,–,–,–
"N#CCOC(=O)c1nc(-c2ccc3cc[nH]c3c2F)c(F)c(N)c1Cl [Compound 6, cyanomethyl 4-amino-3-chloro-5-fluoro-6-(7-fluoro-1H-indol-6-yl)picolinate]",superior herbicidal activity over Compound 7,47.5%,68.8%,85.8%,62%,81.5%,92.5%,95%,98.3%,99%
"Nc1c(F)c(-c2ccc3cc[nH]c3c2F)nc(C(=O)OCc2ccccc2)c1Cl [Compound 7, benzyl 4-amino-3-chloro-5-fluoro-6-(7-fluoro-1H-indol-6-yl)picolinate, reference compound]",–,46.3%,63.3%,70%,45%,72%,78.8%,95.5%,98.5%,98.8%

# Source: patent US11363816B2, “4-amino-6-(heterocyclic)picolinates and 6-amino-2-(heterocyclic)pyramidine-4-carboxylates and their use as herbicides” (Dow AgroSciences LLC, priority 2017, dated 2022)
